Where two headings read alike, the source gives them in different places.

Data on 15 compounds can be found in article PMC7281280, “Is the Way to Fight Cancer Paved with Gold? Metal-Based Carbene Complexes with Multiple and Fascinating Biological Features” (Pharmaceuticals, 2020).

In test [1] the test system is MDA-MB-231 cells. In words: Detection of intracellular ROS (DCF-DA). The following applies: fluorescence microscopy. In kind it is cell-based, human. As for the experimental part:
We used 2,7-dichlorofluorescin diacetate (DCF-DA) as a fluorometric probe for ROS detection and their production was examined under an inverted fluorescence microscope, as already reported.
Cells were grown on glass coverslips until the treatment with compound or menadione (used as positive control) (Sigma–Aldrich, Milan, Italy). Then, cells were incubated with 10 μM 2′-7′-Dichlorofluorescein diacetate (Sigma–Aldrich, Milan, Italy) for 40 min at 37 °C in a 5% CO2 incubator, as previously described. Then, DAPI (0.2 μg mL^−1) counterstain was performed for 10 min at room temperature, in the dark. Cells were then washed three times with cold PBS, adding one drop of mounting solution, then they were observed and imaged under a fluorescence microscope (Leica DM6000; 20× magnification) with excitation/emission wavelength maxima of 490 nm/515 nm (DCF) or 350 nm/460 nm (DAPI). Images are representative of three independent experiments.
Images were acquired at 20× magnification. […] Fields are representative of three separate experiments.

In test [2] the test system is MCF-7 human breast cancer cells. In words: MTT cell viability, MCF-7. In kind it is cell-based. The following applies: mean ± SD. The procedure: (§1) The six cell lines used in this work (MCF-7, MDA-MB-231, HeLa, […], MCF-10A and Hek-293) were purchased from American Type Culture Collection (ATCC, Manassas, VA, USA). MCF-7 human breast cancer cells, estrogen receptor (ER)-positive, were maintained in Dulbecco’s modified Eagle’s medium/nutrient mixture Ham F-12 (DMEM/F12), supplemented with 10% fetal bovine serum (FBS) and 100 U mL^−1 penicillin/streptomycin. MCF-10A human mammary epithelial cells, were cultured in DMEM/F12 medium, supplemented with 5% horse serum (HS, Thermo Fisher Scientific, Milan, Italy), 100 U mL^−1 penicillin/streptomycin, […] hydrocortisone, 20 ng mL^−1 human epidermal growth factor (hEGF), […] insulin, and […] cholera enterotoxin (Sigma–Aldrich, Milan, Italy). MDA-MB-231 human breast cancer cells, known as triple-negative cells (i.e., not overexpressing human epidermal growth factor receptor 2 (HER2), estrogen and progesterone receptors), were cultured in DMEM/F12 supplemented with 5% FBS, 1% L-glutamine and 100 U mL^−1 penicillin/streptomycin. HeLa human epithelial cervix carcinoma cells, estrogen receptor (ER)-negative, and […] human endometrial adenocarcinoma cells, estrogen receptor (ER)-positive, were maintained in minimum essential Eagle’s Medium (MEM), supplemented with 10% FBS, 1% L-glutamine, 100 U mL^−1 penicillin/streptomycin and 1% Non-Essential Amino Acids (NEAA). Hek-293 human embryonic kidney epithelial cells were cultured in DMEM high glucose (4.5 g L^−1), supplemented with 10% FBS, 1% L-glutamine and 100 U mL^–1 penicillin/streptomycin. Cells were maintained at 37 °C in a humidified atmosphere of 95% air and 5% CO2 and periodically screened for contamination.
(§2) Cell viability has been determined using the 3-(4,5-dimethylthiazol-2-y1)-2,5-diphenyltetrazolium bromide (MTT, Sigma–Aldrich, Milan, Italy) assay. Cells have been seeded on 48-well plates and grown in complete medium. Before being treated, cells have been starved in serum free medium for 24 h for allowing cell cycle synchronization. […] Data are representative of three independent experiments; standard deviations (SD) have been shown.

In test [3] the test system is MDA-MB-231 human breast cancer cells. In words: MTT cell viability, MDA-MB-231. In kind it is cell-based. The following applies: mean ± SD. As for the experimental part:
as §1, §2

Test [4] deals with HeLa human epithelial cervix carcinoma cells. In words: MTT cell viability, HeLa. In kind it is cell-based. The following applies: 72 h, mean ± SD. As for the experimental part:
as §1, §2

Test [5] relates to ISHIKAWA human endometrial adenocarcinoma cells. In words: MTT cell viability, […]. Type of test: cell-based. The following applies: 72 h, mean ± SD. As for the experimental part: as §1, §2
Test [6] relates to MCF-10A human mammary epithelial cells. In words: MTT cell viability, normal MCF-10A. Type of test: cell-based. The following applies: 72 h, mean ± SD. As for the experimental part: as §1, §2
Test [7] concerns Hek-293 human embryonic kidney epithelial cells. Put plainly: MTT cell viability, normal Hek-293. Type of test: cell-based. The following applies: for IC50: normal cells, MTT, 72 h, mean ± SD, read-out: IC50 Hek-293. As for the experimental part: as §1, §2
The subject of another test is tubulin. In words: In vitro tubulin-polymerization assay (turbidity at 350 nm). Type of test: biochemical. The following applies: 10 µM; for final optical density value at 350 nm (OD350): vehicle (DMSO) about 0.43. The procedure:
Tubulin-polymerization inihibition was measured using in vitro Tubulin-Polymerization Assay Kit purchased fromEMD Millipore Corporation. Polymerization reactions occur in 70 µL final volumes, of which 60 µL is the 60 µM tubulin in 1 × PB-GTP and 10 µL is the test substance dissolved in 1 × PB-GTP. […] These reactives were combined in 96-well plate on ice. After the plate was transferred into the spectrophotometer pre-warmed at 37 °C and the turbidity variation was measured every 30 s at 350 nm for 90 min. The plate was shaked for 10 s before each measurement. Turbidity (absorbance) readings were used to calculate the extent of polymerization [% inhibition = (1−A350 sample/A350 control) × 100].
Figure 4 Tubulin-polymerization assay. […] Two positive control molecules, Paclitaxel and Vinblastine, were used as tubulin-stabilizing and tubulin-destabilizing agents, respectively. DMSO was used as a negative control. Assembly of tubulin into microtubules was determined by measuring the turbidity at 350 nm for 3600 s at 37 °C. All the compounds were used at a concentration of 10 μM.

Test [8] concerns MDA-MB-231 cells. In words: Immunofluorescence of microtubules, MDA-MB-231. The following applies: at IC50 value, 24 h. Type of test: cell-based, human. As for the experimental part:
(§3) Cells were grown on glass coverslips in full media, then serum-deprived for 24 h and exposed to compounds for 24 h (concentration equal to its IC50 value). Then, the cells after PBS-washed, were fixed with cold methanol (15 min/−20 °C) and incubated with primary antibody, diluted in blocking solution (4 °C/overnight), as previously described. The mouse anti-β-Actin (69879) and the rabbit anti-β tubulin (9104) were purchased from Santa Cruz Biotechnology and used at 1:100 dilution. Coverslips were then washed 3 times with PBS, then fixed cells were incubated with the secondary antibody Alexa Fluor® 568 conjugate goat-anti-mouse and Alexa Fluor® 488 conjugate goat-anti-rabbit (1:500, Thermo Fisher Scientific, Waltham, MA, USA). Nuclei were stained using DAPI (Sigma–Aldrich, Mila, Italy) for 10 min at a concentration of 0.2 μg/mL then washed 3 times with PBS. Fluorescence was detected using a fluorescence microscope (Leica DM 6000). LAS-X software was used to acquire and process all images.
Figure 5 Immunofluorescence studies. […] Panels A: DAPI, excitation/emission wavelength 350 nm/460 nm; panels B: β-tubulin (Alexa Fluor® 488) excitation/emission wavelength 490 nm/515 nm; panels C show a merge. Representative fields are shown.

Another test concerns HeLa cells. In words: Immunofluorescence of microtubules, HeLa. Type of test: cell-based, human. The following applies: at IC50 value, 24 h. As for the experimental part:
as §3
Figure 6 Immunofluorescence studies. HeLa cells were treated with AuL4, Vinblastine, Paclitaxel (used at their IC50 values) or with a vehicle (CTRL) for 24 h. After treatment, the cells were methanol fixed, incubated with primary and secondary antibodies, stained with DAPI and observed and imaged under the inverted fluorescence microscope at 20× magnification (see Materials and methods). […] Panels A: DAPI, excitation/emission wavelength 350 nm/460 nm; panels B: β-tubulin (Alexa Fluor® 488) excitation/emission wavelength 490 nm/515 nm; panels C show a merge. Representative fields are shown.

Take `CC1=CC(=O)c2ccccc2C1=O` [menadione, reference compound]: the “ROS production (DCF green fluorescence)” value in the test on MDA-MB-231 cells [1] is listed as “increased ROS production”.
One may read the IC50 as the concentration that gives 50% inhibition. `C[n+]1c(Cl)c(Cl)n(CC(O)c2ccccc2)[c]1[Ag-][c]1n(CC(O)c2ccccc2)c(Cl)c(Cl)[n+]1C.[I][Ag-][I]` (racemic) [AgL7, bis-[4,5-dichloro-(N-methyl-N’(2-hydroxy-2-phenyl)ethyl-imidazole-2-ylidene]silver(I)]^+[di-iodide-silver]^−]: the IC50 in test [2] (72 h) was 10.5 ± 0.8 µM; in test [3] (72 h) it was 3.22 ± 1.2 µM; in [4], 9.76 ± 0.6 µM; in test [5] it was 6.55 ± 0.9 µM; in test [6], greater than 200 µM; in test [7], greater than 200 µM.
For `C[n+]1ccn(CC(O)c2ccccc2)[c]1[Ag-][c]1n(CC(O)c2ccccc2)cc[n+]1C.[I][Ag-][I]` (racemic) [AgL3], in test [3] (72 h), the “IC50 MDA-MB-231” value is “completely inactive”.
Regarding `OC(Cn1cc[n+](CC(O)c2ccccc2)[c]1[Ag-][c]1n(CC(O)c2ccccc2)cc[n+]1CC(O)c1ccccc1)c1ccccc1.[I][Ag-][I]` (mixture of isomers) [AgL6], the IC50 in [2] (72 h) was 29.7 ± 0.3 µM; in test [3] (72 h), 57.9 ± 0.5 µM; in [4], 47.7 ± 0.4 µM; in test [5], 26.7 ± 0.5 µM; in test [6] it was 143.4 ± 0.8 µM; in test [7], greater than 200 µM.
On to `OCc1ccc(-[n+]2ccn(CC(O)c3ccccc3)c2)cc1` (stereo not drawn) [L5, N-[4-(hydroxymethyl)phenyl]-N’-[(2-hydroxy-2-phenyl)ethyl]-imidazolium bromide], for which the IC50 was greater than 200 µM in test [2] (Homo sapiens, MCF7, 72 h); greater than 200 µM in test [3] (Homo sapiens, MDA-MB-231, 72 h); greater than 200 µM in test [4] (Homo sapiens, HeLa); greater than 200 µM in [5] (Homo sapiens, Ishikawa); greater than 200 µM in test [6] (Homo sapiens, MCF-10A); greater than 200 µM in [7] (Homo sapiens, HEK293).
Regarding `N.N.[Cl][Pt][Cl]` [Cis-platin, Cisplatin, reference compound], the IC50 worked out at 35.8 ± 1.3 µM in test [2] (72 h); 28.7 ± 1 µM in test [3] (72 h); 15.7 ± 1.1 µM in test [4]; 15.1 ± 0.8 µM in test [5]; 81.3 ± 1.2 µM in test [6]; 16.8 ± 0.4 µM in [7].
With `C[n+]1ccn(CC(O)c2ccccc2)[c]1[Au-][c]1n(CC(O)c2ccccc2)cc[n+]1C.[Cl][Au-][Cl]` (racemic) [AuL3], in test [3] (72 h), the IC50 came out at 3.43 ± 1 µM.
In the case of `C[n+]1cn(CC(O)c2ccccc2)c(Cl)c1Cl` (stereo not drawn) [L7], the IC50 in [2] (72 h), in test [3] (72 h), in test [4], in [5], in test [6] and in test [7] was greater than 200 µM each time.
Consider `CC[C@]1(O)C[C@@H]2CN(CCc3c([nH]c4ccccc34)[C@@](C(=O)OC)(c3cc4c(cc3OC)N(C)[C@H]3[C@@](O)(C(=O)OC)[C@H](OC(C)=O)[C@]5(CC)C=CCN6CC[C@]43[C@@H]65)C2)C1` [vinblastine, reference compound], for which, in the test on tubulin, the “effect on tubulin-polymerization reaction” value is on record as “tubulin-polymerization inhibition”. In the test on tubulin (37 °C), the “time to reach the steady state of polymerization curve” value is reported as “about 40 min” and the “final optical density value at 350 nm (OD350)” value is “less than the half of the vehicle reaction”. Also, in the test on MDA-MB-231 cells [8], the “effect on microtubule network, MDA-MB-231” value is given as “microtubules disorganization”. For the same compound, the “effect on microtubule network, HeLa” value in the test on HeLa cells was “microtubules disorganization”.
For the compound `CC(=O)O[C@H]1C(=O)[C@@]2(C)[C@H]([C@H](OC(=O)c3ccccc3)[C@]3(O)C[C@H](OC(=O)[C@H](O)[C@@H](NC(=O)c4ccccc4)c4ccccc4)C(C)=C1C3(C)C)[C@]1(OC(C)=O)CO[C@@H]1C[C@@H]2O` [paclitaxel], in the test on tubulin (37 °C), the “final optical density value at 350 nm (OD350)” value is “about 0.51”. Moreover, the “effect on microtubule network, MDA-MB-231” value in the test on MDA-MB-231 cells [8] is reported as “microtubules non-reversible polymerization”. Moreover, in the test on HeLa cells, the “effect on microtubule network, HeLa” value was “microtubules non-reversible polymerization”.
Take `OCc1ccc(-n2cc[n+](CC(O)c3ccccc3)[c]2[Au-][Br])cc1` (racemic) [AuL5]: the IC50 in test [2] (72 h) is 18.2 ± 0.5 µM; in test [3] (72 h) it was 31.7 ± 0.8 µM; in test [4], 44.5 ± 0.9 µM; in test [5] it was 54.9 ± 1 µM; in test [6], greater than 200 µM; in test [7], greater than 200 µM.
`OCc1ccc(-n2ccn(CC(O)c3ccccc3)[c]2=[Ag][Br])cc1` (stereo not drawn) [AgL5]: the IC50 in test [2] (72 h), in test [3] (72 h), in [4], in test [5], in test [6] and in [7] was greater than 200 µM throughout.
Take `OC(Cn1cc[n+](CC(O)c2ccccc2)c1)c1ccccc1` (stereo not drawn) [L6]: the IC50 was greater than 200 µM in [2] (Homo sapiens, MCF7, 72 h); greater than 200 µM in [3] (Homo sapiens, MDA-MB-231, 72 h); greater than 200 µM in test [4] (Homo sapiens, HeLa); greater than 200 µM in test [5] (Homo sapiens, Ishikawa); greater than 200 µM in [6] (Homo sapiens, MCF-10A); greater than 200 µM in test [7] (Homo sapiens, HEK293).
As to `OC(Cn1ccn(CC(O)c2ccccc2)[c]1=[AuH]=[c]1n(CC(O)c2ccccc2)ccn1CC(O)c1ccccc1)c1ccccc1.[Cl][AuH][Cl]` (stereo not drawn) [AuL6], the IC50 in [2] (72 h) is 9.38 ± 0.2 µM; in [3] (72 h) it was 53.7 ± 0.7 µM; in [4] it was 98.6 ± 1.2 µM; in test [5], 12.6 ± 0.3 µM; in [6], 158.8 ± 1 µM; in test [7], greater than 200 µM.
On to `O=c1c(O)c(-c2ccc(O)c(O)c2)oc2cc(O)cc(O)c12` [Quercetin, reference compound], for which the “increase of the Hek-293 cells viability vs AuL7 alone” value in test [7] (pre-treatment for 4 h with Quercetin (at 50 μM), then AuL7) is listed as “about 1.5 fold”.
